pKd: −log10 of the molar value. Where a name gives a salt, the structure may show the parent alone.
Target: T1, human galectin-3 (hGal-3) (Homo sapiens, UniProt P17931)
T1 construct: P.K. and P.B. prepared recombinant full-length hGal-3 and contributed to the ITC experiments; made in house
Experiment: Isothermal titration calorimetry (ITC) of sugar analogs with recombinant hGal-3
Format: binding
Conditions: 27 °C; for −ΔH: binding enthalpy, lectin monomer units, errors 1–4%; for −ΔG: calculated from ΔG = -RT ln(Ka), errors less than 2%; for −TΔS: calculated from ΔG = ΔH − TΔS; for −TΔS / pKd: errors 1–7%; for n Sites/ Monomer: number of binding sites per hGal-3 monomer, errors less than 4%; for pKd / Ka: pH 7.2, 20 mM PBS buffer; for pKd: recombinant hGal-3, Kd calculated from 1/Ka; for Ka: recombinant hGal-3, errors 1–7%; for Relative Potencies: relative to methyl lactoside 1 = 1.0
Experimental: The Kd value of PNP LacNAc (20) was similar to that of its propargyl Lac analog 11.
ITC experiments were performed using a VP-ITC instrument from GE. Injections of 4 µL of carbohydrate solutions were added from a computer-controlled micro syringe at an interval of 4 min into the sample solution of hGal-3 (cell volume = 1.43 mL) with stirring at 350 rpm. Control experiments were performed by injecting the carbohydrates into a cell containing only buffer. The concentration range of hGal-3 was 90–130 µΜ, and the concentrations of the carbohydrates were 15–25 mM based on the dry weight molecular weights of the latter molecules. The concentration of hGal-3 was based on its molecular mass. Titrations were done at 27 °C (pH 7.2) using 20 mM PBS buffer. The experimental data were fitted to a theoretical titration curve using software supplied by the vendor, with ΔH (binding enthalpy in kcal mol^−1) (lectin monomer units), Ka (association constant) and n (number of binding sites per monomer), as adjustable parameters. The Kd (dissociation constant) was calculated from 1/Ka. The quantity c = Ka Mt (0), where Mt (0) is the initial macromolecule concentration, is of importance in titration microcalorimetry. All experiments were performed with c values 1 < c < 500. The instrument was calibrated using the calibration kit containing ribonuclease A (RNase A) and cytidine 2′-monophosphate (2′-CMP) supplied by the manufacturer. Thermodynamic parameters were calculated from the Gibbs Free Energy equation, ΔG = ΔH − TΔS = -RT ln(Ka), where ΔG, ΔH, and ΔS are the changes in free energy, enthalpy, and entropy of binding, respectively. T is the absolute temperature and R = 1.98 cal mol^−11 K^−1.

T1 sequence (P17931 whole entry): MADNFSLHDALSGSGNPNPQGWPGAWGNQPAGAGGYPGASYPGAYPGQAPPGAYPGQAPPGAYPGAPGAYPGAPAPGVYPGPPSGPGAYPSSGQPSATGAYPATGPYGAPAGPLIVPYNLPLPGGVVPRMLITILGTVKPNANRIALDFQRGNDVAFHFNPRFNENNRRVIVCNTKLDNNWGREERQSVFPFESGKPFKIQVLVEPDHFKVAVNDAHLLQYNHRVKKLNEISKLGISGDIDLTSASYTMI

Compound: CO[C@@H]1O[C@H](CO)[C@@H](O[C@@H]2O[C@H](CO)[C@H](O)[C@H](O)[C@H]2O)[C@H](O)[C@H]1O [Compound 1, methyl 4-O-β-D-galactopyranosyl-β-D-glucopyranoside, reference compound]
- −ΔH: 3.9 kcal/mol
- −ΔG: 5.5 kcal/mol
- −TΔS: -1.6 kcal/mol
- n Sites/ Monomer: 1.08
- pKd: 4.04
- Ka: 1.1 10^4 M^−1
- Relative Potencies: 1.0

Compound: C#CCO[C@@H]1O[C@H](CO)[C@@H](O[C@@H]2O[C@H](CO)[C@H](O)[C@H](O)[C@H]2O)[C@H](O)[C@H]1O [Compound 4, Propargyl (β-D-Galactopyranosyl)-(1→4)-β-D-Glucopyranoside]
- −ΔH: 5.7 kcal/mol
- −ΔG: 5.9 kcal/mol
- −TΔS: -0.2 kcal/mol
- n Sites/ Monomer: 0.98
- pKd: 4.32
- Ka: 2.1 10^4 M^−1
- Relative Potencies: 1.9

Compound: O=[N+]([O-])c1ccc(O[C@@H]2O[C@H](CO)[C@@H](O[C@@H]3O[C@H](CO)[C@H](O)[C@H](O)[C@H]3O)[C@H](O)[C@H]2O)cc1 [Compound 6, 4-Nitrophenyl (β-D-Galactopyranosyl)-(1→4)-β-D-Glucopyranoside]
- −ΔH: 3.7 kcal/mol
- −ΔG: 5.9 kcal/mol
- −TΔS: -2.2 kcal/mol
- n Sites/ Monomer: 1.10
- pKd: 4.30
- Relative Potencies: 1.8

Compound: C#CCO[C@@H]1O[C@H](CO)[C@@H](O[C@@H]2O[C@H](CO)[C@H](O)[C@H](OS(=O)(=O)O)[C@H]2O)[C@H](O)[C@H]1O [Compound 11, Propargyl (3-O-Sulfo-β-D-Galactopyranosyl)-(1→4)-β-D-Glucopyranoside Sodium Salt]
- −ΔH: 3.8 kcal/mol
- −ΔG: 6.1 kcal/mol
- −TΔS: -2.3 kcal/mol
- n Sites/ Monomer: 1.08
- pKd: 4.43
- Ka: 2.7 10^4 M^−1
- Relative Potencies: 2.5

Compound: O=[N+]([O-])c1ccc(O[C@@H]2O[C@H](CO)[C@@H](O[C@@H]3O[C@H](CO)[C@H](O)[C@H](OS(=O)(=O)O)[C@H]3O)[C@H](O)[C@H]2O)cc1 [Compound 12, 4-Nitrophenyl (3-O-Sulfo-β-D-Galactopyranosyl)-(1→4)-β-D-Glucopyranoside Sodium Salt]
- −ΔH: 6.0 kcal/mol
- −ΔG: 6.4 kcal/mol
- −TΔS: -0.4 kcal/mol
- n Sites/ Monomer: 0.97
- pKd: 4.69
- Ka: 4.9 10^4 M^−1
- Relative Potencies: 4.5

Compound: CC(=O)N[C@H]1[C@H](Oc2ccc([N+](=O)[O-])cc2)O[C@H](CO)[C@@H](O[C@@H]2O[C@H](CO)[C@H](O)[C@H](O)[C@H]2O)[C@@H]1O [Compound 20, 4-Nitrophenyl (β-D-Galactopyranosyl)-(1→4)-2-Acetamido-2-Deoxy-β-D-Glucopyranoside]
- −ΔH: 7.3 kcal/mol
- −ΔG: 6.1 kcal/mol
- −TΔS: 1.2 kcal/mol
- n Sites/ Monomer: 1.05
- pKd: 4.48
- Ka: 3.0 10^4 M^−1
- Relative Potencies: 2.7

Compound: CC(=O)N[C@H]1[C@H](Oc2ccc([N+](=O)[O-])cc2)O[C@H](CO)[C@@H](O[C@@H]2O[C@H](CO)[C@H](O)[C@H](OS(=O)(=O)O)[C@H]2O)[C@@H]1O [Compound 23, 4-Nitrophenyl (3-O-Sulfo-β-D-Galactopyranosyl)-(1→4)-2-Acetamido-2-Deoxy-β-D-Glucopyranoside Sodium Salt]
- −ΔH: 3.3 kcal/mol
- −ΔG: 6.3 kcal/mol
- −TΔS: -3.0 kcal/mol
- n Sites/ Monomer: 0.96
- pKd: 4.65
- Ka: 4.5 10^4 M^−1
- Relative Potencies: 4.1

Compound: C#CCO[C@@H]1O[C@H](CO)[C@@H](O[C@@H]2O[C@H](CO)[C@H](O)[C@H](O)[C@H]2O)[C@H](O)[C@H]1NC(C)=O [Compound 27, Propargyl (β-D-Galactopyranosyl)-(1→4)-2-Acetamido-2-Deoxy-β-D-Glucopyranoside]
- −ΔH: 4.2 kcal/mol
- −ΔG: 6.0 kcal/mol
- −TΔS: -1.8 kcal/mol
- n Sites/ Monomer: 1.10
- pKd: 4.42
- Ka: 2.6 10^4 M^−1
- Relative Potencies: 2.4

Compound: C#CCO[C@@H]1O[C@H](CO)[C@@H](O[C@@H]2O[C@H](CO)[C@H](O)[C@H](OS(=O)(=O)O)[C@H]2O)[C@H](O)[C@H]1NC(C)=O [Compound 30, Propargyl (3-O-Sulfo-β-D-Galactopyranosyl)-(1→4)-2-Acetamido-2-Deoxy-β-D-Glucopyranoside Sodium Salt]
- −ΔH: 5.2 kcal/mol
- −ΔG: 6.6 kcal/mol
- −TΔS: -1.4 kcal/mol
- n Sites/ Monomer: 1.07
- pKd: 4.83
- Ka: 6.8 10^4 M^−1
- Relative Potencies: 6.2

Compound: C#CCO[C@@H]1O[C@H](CO)[C@@H](O[C@@H]2O[C@H](CO)[C@H](O)[C@H](OCC(=O)O)[C@H]2O)[C@H](O)[C@H]1NC(C)=O [Compound 32, Propargyl (3-O-Carboxymethyl-β-D-Galactopyranosyl)-(1→4)-2-Acetamido-2-Deoxy-β-D-Glucopyranoside Sodium Salt]
- −ΔH: 4.3 kcal/mol
- −ΔG: 5.8 kcal/mol
- n Sites/ Monomer: 1.10
- pKd: 4.28
- Ka: 1.9 10^4 M^−1
- Relative Potencies: 1.7

Compound: C#CCOC1OC(CO)C(OC2OC(CO)C(O)C(OC3(C(=O)O)CC(O)C(NC(C)=O)C(C(O)C(O)CO)O3)C2O)C(O)C1NC(C)=O (stereo not drawn) [Compound 33]
- −ΔH: 5.9 kcal/mol
- −ΔG: 5.7 kcal/mol
- −TΔS: 0.2 kcal/mol
- n Sites/ Monomer: 1.04
- pKd: 4.20
- Ka: 1.6 10^4 M^−1
- Relative Potencies: 1.5

Source: PMC9962200, “Selectively Modified Lactose and N-Acetyllactosamine Analogs at Three Key Positions to Afford Effective Galectin-3 Ligands” (International Journal of Molecular Sciences, 2023)
